In paper PMC3615439 (Medicinal chemistry, 2011):

Key:
σ1 receptors = σ1 receptors (Cavia porcellus, UniProt Q60492); assay: σ1 receptor binding, competition against [3H]; parameters: species or system guinea pig; conditions: for fold lower σ1 receptor affinity than positional isomers: 2-substituted ligand versus its 3- and/or 4-substituted isomers; for Hill Slope: guinea pig brain membranes, mean ± SEM
[1] = Lipophilicity by reverse-phase HPLC; type: physicochemical; conditions: aqueous phase pH 7.5, text calls it log k′w

σ1 receptors, sequence (Q60492 whole entry): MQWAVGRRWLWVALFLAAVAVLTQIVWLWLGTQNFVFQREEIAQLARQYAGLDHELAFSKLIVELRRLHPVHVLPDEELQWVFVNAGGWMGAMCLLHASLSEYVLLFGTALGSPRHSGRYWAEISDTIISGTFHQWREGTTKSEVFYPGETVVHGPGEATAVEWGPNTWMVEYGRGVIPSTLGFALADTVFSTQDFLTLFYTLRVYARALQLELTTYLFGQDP

| SMILES | IC50 (σ1 receptors) | Ki (σ1 receptors) | fold lower σ1 receptor affinity than positional isomers (σ1 receptors) | Hill Slope (σ1 receptors) | k′w [1] | fold poorer Ki value than compounds 6 or 9 (σ1 receptors; 4-iodo versus 4-fluoro or 4-bromo derivative) |
| --- | --- | --- | --- | --- | --- | --- |
| Clc1ccc(CCNCCNCCc2ccccc2I)cc1Cl [Compound 10, N-[2-(3,4-Dichlorophenyl)-ethyl]-N′-[2-(2-iodophenyl)-ethyl]-ethane-1,2-diamine] | 62.5 ± 0.96 nM | 43.2 ± 0.66 nM | 2.7 fold | −1.12 ± 0.03 | – | – |
| Fc1ccccc1CCNCCNCCc1ccc(Cl)c(Cl)c1 [Compound 4, N-[2-(3,4-Dichlorophenyl)-ethyl]-N′-[2-(2-fluorophenyl)-ethyl]-ethane-1,2-diamine] | 17.5 ± 0.31 nM | 12.1 ± 0.22 nM | 1.5 fold | −1.07 ± 0.01 | – | – |
| Clc1ccc(CCNCCNCCc2ccc(Br)cc2)cc1Cl [Compound 9, N-[2-(4-Bromophenyl)-ethyl]-N′-[2-(3,4-dichlorophenyl)-ethyl]-ethane-1,2-diamine] | 9.85 ± 3.92 nM | 6.8 ± 2.71 nM | – | −1.00 ± 0.02 | 3.31 ± 0.08 | – |
| Fc1ccc(CCNCCNCCc2ccc(Cl)c(Cl)c2)cc1 [Compound 6, N-[2-(3,4-Dichlorophenyl)-ethyl]-N′-[2-(4-fluorophenyl)-ethyl]-ethane-1,2-diamine] | 11.3 ± 2.02 nM | 7.83 ± 1.39 nM | – | −1.21 ± 0.05 | 2.54 ± 0.05 | – |
| Clc1ccc(CCNCCNCCc2cccc(Br)c2)cc1Cl [Compound 8, N-[2-(3-Bromophenyl)-ethyl]-N′-[2-(3,4-dichlorophenyl)-ethyl]-ethane-1,2-diamine] | 9.14 ± 0.85 nM | 6.35 ± 0.59 nM | – | −1.02 ± 0.15 | 3.06 ± 0.07 | – |
| Clc1ccc(CCNCCNCCc2ccc(I)cc2)cc1Cl [Compound 11, N-[2-(3,4-Dichlorophenyl)-ethyl]-N′-[2-(4-iodophenyl)-ethyl]-ethane-1,2-diamine] | 22.9 ± 0.94 nM | 15.8 ± 0.65 nM | – | −1.59 ± 0.08 | 3.71 ± 0.05 | 2 fold |
| Fc1cccc(CCNCCNCCc2ccc(Cl)c(Cl)c2)c1 [Compound 5, N-[2-(3,4-Dichlorophenyl)-ethyl]-N′-[2-(3-fluorophenyl)-ethyl]-ethane-1,2-diamine] | 11.2 ± 1.29 nM | 7.74 ± 0.89 nM | – | −1.13 ± 0.09 | 2.54 | – |
| Clc1ccc(CCNCCNCCc2ccccc2Br)cc1Cl [Compound 7, N-[2-(2-Bromophenyl)-ethyl]-N′-[2-(3,4-dichlorophenyl)-ethyl]-ethane-1,2-diamine] | 26.6 ± 3.95 nM | 18.4 ± 2.73 nM | 2.7 fold | −0.78 ± 0.03 | 3.09 ± 0.05 | – |
